# Assay results: patent US12264156B2, “Compounds and pharmaceutical compositions thereof for the treatment of diseases” (GALAPAGOS NV, priority 2018, dated 2025)
# Tests used:
# Format in all cases: biochemical
# Conditions in all cases: ADP-Glo SIK kinase assay
# SIK2 = target: T1, SIK2 (Homo sapiens, UniProt Q9H0K1); assay: ADP-Glo kinase assay, SIK2
# T1 construct: purchased ThermoFisher Scientific PV4792
# Outline: (§1)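 Wells with 1% DMSO or 10 μM staurosporine (final) define the control window. The kinase reaction with substrate and ATP runs 120 min at RT, followed by ADP-Glo detection: ATP depletion (40 min) and ADP-derived luminescence (30 min).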
# SIK1 = target: T2, SIK1 (Homo sapiens, UniProt P57059); assay: ADP-Glo kinase assay, SIK1
# T2 construct: purchased Carna Biosciences 02-131
# T2 sequence (P57059 whole entry): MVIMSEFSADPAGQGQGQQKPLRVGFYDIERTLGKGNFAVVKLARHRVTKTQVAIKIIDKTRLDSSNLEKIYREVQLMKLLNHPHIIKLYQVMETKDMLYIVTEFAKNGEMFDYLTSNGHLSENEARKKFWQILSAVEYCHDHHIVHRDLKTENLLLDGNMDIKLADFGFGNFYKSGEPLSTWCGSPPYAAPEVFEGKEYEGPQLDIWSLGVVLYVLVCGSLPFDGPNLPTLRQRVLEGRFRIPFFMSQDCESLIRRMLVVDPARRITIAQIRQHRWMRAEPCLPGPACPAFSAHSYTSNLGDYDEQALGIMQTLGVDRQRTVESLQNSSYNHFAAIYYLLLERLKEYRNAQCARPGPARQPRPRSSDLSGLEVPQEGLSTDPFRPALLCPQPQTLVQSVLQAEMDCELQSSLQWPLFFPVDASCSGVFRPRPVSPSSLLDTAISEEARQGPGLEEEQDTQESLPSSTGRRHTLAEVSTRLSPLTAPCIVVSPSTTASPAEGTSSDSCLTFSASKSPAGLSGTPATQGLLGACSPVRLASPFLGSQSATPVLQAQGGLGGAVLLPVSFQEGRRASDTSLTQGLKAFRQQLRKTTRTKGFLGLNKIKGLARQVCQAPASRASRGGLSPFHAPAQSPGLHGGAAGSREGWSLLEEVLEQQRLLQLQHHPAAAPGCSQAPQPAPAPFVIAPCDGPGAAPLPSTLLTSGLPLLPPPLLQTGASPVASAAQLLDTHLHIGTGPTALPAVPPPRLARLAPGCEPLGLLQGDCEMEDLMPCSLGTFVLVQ
# Outline: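 Enzyme–substrate mix was started with ATP and incubated 120 min at RT. ADP formed was quantified by ADP-Glo: 40 min ATP depletion, then 30 min detection reagent converting ADP to ATP for luciferase luminescence, which rises with kinase activity. Controls: 1% DMSO and 10 μM staurosporine (final).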
# SIK3 = target: T3, SIK3 (Homo sapiens, UniProt Q9Y2K2); assay: ADP-Glo kinase assay, SIK3
# T3 construct: purchased SignalChem S12-11G-100
# T3 sequence (Q9Y2K2 whole entry): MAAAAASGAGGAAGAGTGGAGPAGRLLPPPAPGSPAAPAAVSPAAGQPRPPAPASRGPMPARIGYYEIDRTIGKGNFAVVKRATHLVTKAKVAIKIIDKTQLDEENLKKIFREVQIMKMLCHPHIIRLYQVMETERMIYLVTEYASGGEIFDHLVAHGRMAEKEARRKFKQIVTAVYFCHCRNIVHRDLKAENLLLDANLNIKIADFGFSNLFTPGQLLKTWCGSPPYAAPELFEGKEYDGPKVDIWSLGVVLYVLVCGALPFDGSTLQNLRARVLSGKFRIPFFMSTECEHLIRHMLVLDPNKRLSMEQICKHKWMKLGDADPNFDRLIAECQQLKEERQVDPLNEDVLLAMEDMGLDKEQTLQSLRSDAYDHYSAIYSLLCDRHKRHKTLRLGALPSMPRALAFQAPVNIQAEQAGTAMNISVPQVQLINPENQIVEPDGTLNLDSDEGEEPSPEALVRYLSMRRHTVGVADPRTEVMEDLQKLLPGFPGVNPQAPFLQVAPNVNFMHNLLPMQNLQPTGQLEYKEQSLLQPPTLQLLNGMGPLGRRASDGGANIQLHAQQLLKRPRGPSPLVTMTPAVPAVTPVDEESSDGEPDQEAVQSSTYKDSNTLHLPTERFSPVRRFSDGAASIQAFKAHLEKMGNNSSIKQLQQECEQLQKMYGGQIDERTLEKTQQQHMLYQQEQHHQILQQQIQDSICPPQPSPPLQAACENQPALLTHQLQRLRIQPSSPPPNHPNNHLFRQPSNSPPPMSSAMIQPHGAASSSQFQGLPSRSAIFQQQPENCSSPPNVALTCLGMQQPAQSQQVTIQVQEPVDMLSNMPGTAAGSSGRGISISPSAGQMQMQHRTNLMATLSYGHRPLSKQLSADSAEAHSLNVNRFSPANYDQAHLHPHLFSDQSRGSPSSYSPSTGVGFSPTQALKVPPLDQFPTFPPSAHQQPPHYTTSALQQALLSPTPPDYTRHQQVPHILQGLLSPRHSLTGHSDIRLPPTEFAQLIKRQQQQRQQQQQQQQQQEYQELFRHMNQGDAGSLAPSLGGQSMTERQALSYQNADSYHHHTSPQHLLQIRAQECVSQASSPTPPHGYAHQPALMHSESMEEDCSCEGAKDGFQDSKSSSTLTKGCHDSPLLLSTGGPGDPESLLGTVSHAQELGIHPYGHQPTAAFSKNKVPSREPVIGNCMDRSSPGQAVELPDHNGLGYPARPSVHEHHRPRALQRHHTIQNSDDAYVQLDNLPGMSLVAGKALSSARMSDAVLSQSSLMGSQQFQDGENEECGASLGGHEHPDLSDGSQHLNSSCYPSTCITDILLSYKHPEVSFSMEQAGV
# Outline: as §1
# T1 sequence (Q9H0K1 whole entry): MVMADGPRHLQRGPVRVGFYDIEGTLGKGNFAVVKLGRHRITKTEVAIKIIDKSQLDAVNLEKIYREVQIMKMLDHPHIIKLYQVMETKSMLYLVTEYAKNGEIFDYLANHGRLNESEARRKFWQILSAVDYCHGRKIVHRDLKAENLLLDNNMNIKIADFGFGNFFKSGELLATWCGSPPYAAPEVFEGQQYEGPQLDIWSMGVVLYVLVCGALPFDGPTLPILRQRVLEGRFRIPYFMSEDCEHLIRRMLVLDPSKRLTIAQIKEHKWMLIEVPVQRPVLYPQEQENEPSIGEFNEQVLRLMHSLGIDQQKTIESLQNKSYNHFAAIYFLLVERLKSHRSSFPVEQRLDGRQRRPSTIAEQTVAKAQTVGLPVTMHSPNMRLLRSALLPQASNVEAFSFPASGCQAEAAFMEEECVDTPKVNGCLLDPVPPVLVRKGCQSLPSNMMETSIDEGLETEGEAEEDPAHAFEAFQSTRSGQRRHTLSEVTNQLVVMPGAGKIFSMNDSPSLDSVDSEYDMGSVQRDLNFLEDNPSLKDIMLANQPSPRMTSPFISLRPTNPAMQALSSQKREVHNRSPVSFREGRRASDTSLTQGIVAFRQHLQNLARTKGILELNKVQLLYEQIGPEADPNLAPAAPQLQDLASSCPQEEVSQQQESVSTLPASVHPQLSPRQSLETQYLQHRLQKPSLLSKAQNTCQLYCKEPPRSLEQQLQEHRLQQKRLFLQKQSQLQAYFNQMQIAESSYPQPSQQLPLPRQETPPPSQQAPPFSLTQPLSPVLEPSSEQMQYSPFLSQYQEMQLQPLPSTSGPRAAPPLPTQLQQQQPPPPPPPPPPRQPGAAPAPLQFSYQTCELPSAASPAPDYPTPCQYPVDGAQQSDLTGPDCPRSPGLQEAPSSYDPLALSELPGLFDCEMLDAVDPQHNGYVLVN
SMILES,IC50 (SIK2),IC50 (SIK1),IC50 (SIK3)
"COc1cc(-c2cnc3cc(OCC4COCCN4C)ccn23)cc(OC(F)F)c1C(=O)NC1CC1 (stereo not drawn) [compound 201, N-cyclopropyl-2-(difluoromethoxy)-6-methoxy-4-[7-[(4-methylmorpholin-3-yl)methoxy]imidazo[1,2-a]pyridin-3-yl]benzamide]",10 to 100 nM,10 to 100 nM,0.01 to 10 nM
"COc1cc(-c2cnc3cc(OC[C@H]4CCN(C5COC5)C4)ccn23)cc(OC(F)F)c1C(=O)NC1CC1 [compound 317, N-cyclopropyl-2-(difluoromethoxy)-6-methoxy-4-[7-[[(3S)-1-(oxetan-3-yl)pyrrolidin-3-yl]methoxy]imidazo[1,2-a]pyridin-3-yl]benzamide]",0.01 to 10 nM,10 to 100 nM,0.01 to 10 nM
"COc1cc(-c2cnc3cc(OCC4(N)CCC4)ccn23)cc(OC(F)F)c1C(=O)NC1CC1 [compound 174, 4-[7-[(1-aminocyclobutyl)methoxy]imidazo[1,2-a]pyridin-3-yl]-N-cyclopropyl-2-(difluoromethoxy)-6-methoxy-benzamide]",0.01 to 10 nM,100 to 500 nM,0.01 to 10 nM
"COc1cc(-c2cnc3cc(OCC4CCC(=O)N4)ccn23)cc(OC(F)F)c1C(=O)NC1CC1 (stereo not drawn) [compound 99, N-cyclopropyl-2-(difluoromethoxy)-6-methoxy-4-[7-[(5-oxopyrrolidin-2-yl)methoxy]imidazo[1,2-a]pyridin-3-yl]benzamide]",0.01 to 10 nM,0.01 to 10 nM,0.01 to 10 nM
"CCC(N)COc1ccn2c(-c3cc(OC)c(C(=O)NC4CC4)c(OC(F)F)c3)cnc2c1 (stereo not drawn) [compound 131, 4-[7-(2-aminobutoxy)imidazo[1,2-a]pyridin-3-yl]-N-cyclopropyl-2-(difluoromethoxy)-6-methoxy-benzamide]",0.01 to 10 nM,10 to 100 nM,0.01 to 10 nM
"COc1cc(-c2cnc3cc(OCCN4CCOCC4)ccn23)cc2ccn(CC(F)(F)F)c(=O)c12 [Cpd 221, 8-methoxy-6-[7-(2-morpholinoethoxy)imidazo [1,2-a]pyridin-3-yl]-2-(2,2,2-trifluoroethyl) isoquinolin-1-one]",10 to 100 nM,> 500 nM,10 to 100 nM
"COc1cc(-c2cnc3cc(OC4CCC(F)(F)C4)ccn23)cc(OC(F)F)c1C(=O)NC1CC1 (stereo not drawn) [compound 62, N-cyclopropyl-4-[7-(3,3-difluorocyclopentoxy)imidazo[1,2-a]pyridin-3-yl]-2-(difluoromethoxy)-6-methoxy-benzamide]",10 to 100 nM,10 to 100 nM,0.01 to 10 nM
"COc1cc(-c2cnc3cc(OCc4cncn4C)ccn23)cc(OC(F)F)c1C(=O)NC1CC1 [compound 19, N-cyclopropyl-2-(difluoromethoxy)-6-methoxy-4-[7-[(3-methylimidazol-4-yl)methoxy]imidazo[1,2-a]pyridin-3-yl]benzamide]",0.01 to 10 nM,10 to 100 nM,0.01 to 10 nM
"COc1cc(-c2cnc3cc(OCCN4CCCC4)ccn23)cc(OC(F)F)c1C(=O)NC1CC1 [compound 20, N-cyclopropyl-2-(difluoromethoxy)-6-methoxy-4-[7-(2-pyrrolidin-1-ylethoxy)imidazo[1,2-a]pyridin-3-yl]benzamide]",0.01 to 10 nM,10 to 100 nM,0.01 to 10 nM
"COc1cc(-c2cnc3cc(OCC4CCCO4)ccn23)cc(OC(F)F)c1C(=O)NC1CC1 (stereo not drawn) [compound 93, N-cyclopropyl-2-(difluoromethoxy)-6-methoxy-4-[7-(tetrahydrofuran-2-ylmethoxy)imidazo[1,2-a]pyridin-3-yl]benzamide]",0.01 to 10 nM,10 to 100 nM,0.01 to 10 nM
"CCOC(=O)CN1CCCCC1COc1ccn2c(-c3cc(OC)c(C(=O)NC4CC4)c(OC(F)F)c3)cnc2c1 (stereo not drawn) [Cpd 397, ethyl 2-[2-[[3-[4-(cyclopropylcarbamoyl)-3-(difluoromethoxy)-5-methoxy-phenyl]imidazo[1,2-a]pyridin-7-yl]oxymethyl]-1-piperidyl]acetate]",10 to 100 nM,10 to 100 nM,0.01 to 10 nM
"COc1cc(-c2cnc3cc(OCCN(C)c4ccccc4)ccn23)cc(OC(F)F)c1C(=O)NC1CC1 [Cpd 184, N-cyclopropyl-2-(difluoromethoxy)-6-methoxy-4-[7-[2-(N-methylanilino)ethoxy]imidazo[1,2-a]pyridin-3-yl]benzamide]",0.01 to 10 nM,0.01 to 10 nM,0.01 to 10 nM
"COc1cc(-c2cnc3cc(OC[C@@H](N)C4CCCCC4)ccn23)cc(OC(F)F)c1C(=O)NC1CC1 [compound 133, 4-[7-[(2S)-2-amino-2-cyclohexyl-ethoxy]imidazo[1,2-a]pyridin-3-yl]-N-cyclopropyl-2-(difluoromethoxy)-6-methoxy-benzamide]",0.01 to 10 nM,10 to 100 nM,0.01 to 10 nM
"COc1cc(-c2cnc3cc(OCC(=O)N(C)C)ccn23)cc(OC(F)F)c1C(=O)NC1CC1 [compound 100, N-cyclopropyl-2-(difluoromethoxy)-4-[7-[2-(dimethylamino)-2-oxo-ethoxy]imidazo[1,2-a]pyridin-3-yl]-6-methoxy-benzamide]",10 to 100 nM,100 to 500 nM,10 to 100 nM

# Other lines, results leading:
IC50 (SIK2),IC50 (SIK1),IC50 (SIK3),SMILES
10 to 100 nM,> 500 nM,10 to 100 nM,"CN(C)CCOc1ccn2c(-c3cc(F)c(C(=O)NCC(F)(F)F)c(OC(F)F)c3)cnc2c1 [compound 155, 2-(difluoromethoxy)-4-[7-[2-(dimethylamino)ethoxy]imidazo[1,2-a]pyridin-3-yl]-6-fluoro-N-(2,2,2-trifluoroethyl)benzamide]"
0.01 to 10 nM,10 to 100 nM,0.01 to 10 nM,"COc1cc(-c2cnc3cc(OCCN4CCOCC4C#N)ccn23)cc(OC(F)F)c1C(=O)NC1CC1 (stereo not drawn) [compound 178, 4-[7-[2-(3-cyanomorpholin-4-yl)ethoxy]imidazo[1,2-a]pyridin-3-yl]-N-cyclopropyl-2-(difluoromethoxy)-6-methoxy-benzamide]"
0.01 to 10 nM,10 to 100 nM,0.01 to 10 nM,"COc1cc(-c2cnc3cc(OCC(N)C4CCCO4)ccn23)cc(OC(F)F)c1C(=O)NC1CC1 (stereo not drawn) [compound 136, 4-[7-(2-amino-2-tetrahydrofuran-2-yl-ethoxy)imidazo[1,2-a]pyridin-3-yl]-N-cyclopropyl-2-(difluoromethoxy)-6-methoxy-benzamide]"
10 to 100 nM,> 500 nM,10 to 100 nM,"COc1cc(-c2cnc3cc(OC4CCN(C)CC4)ccn23)cc(OC(F)F)c1C(=O)NC1CC1 [compound 7, N-cyclopropyl-2-(difluoromethoxy)-6-methoxy-4-[7-[(1-methyl-4-piperidyl)oxy]imidazo[1,2-a]pyridin-3-yl]benzamide]"
0.01 to 10 nM,10 to 100 nM,0.01 to 10 nM,"COc1cc(-c2cnc3cc(OCc4cn(C)cn4)ccn23)cc(OC(F)F)c1C(=O)NC1CC1 [Cpd 101, N-cyclopropyl-2-(difluoromethoxy)-6-methoxy-4-[7-[(1-methylimidazol-4-yl)methoxy]imidazo[1,2-a]pyridin-3-yl]benzamide]"
0.01 to 10 nM,0.01 to 10 nM,0.01 to 10 nM,"COc1cc(-c2cnc3cc(OCC4CCOCC4)ccn23)cc(OC(F)F)c1C(=O)NC1CC1 [compound 49, N-cyclopropyl-2-(difluoromethoxy)-6-methoxy-4-[7-(tetrahydropyran-4-ylmethoxy)imidazo[1,2-a]pyridin-3-yl] benzamide]"
0.01 to 10 nM,10 to 100 nM,0.01 to 10 nM,"CCOCCOc1ccn2c(-c3cc(OC)c(C(=O)NC4CC4)c(OC(F)F)c3)cnc2c1 [compound 72, N-cyclopropyl-2-(difluoromethoxy)-4-[7-(2-ethoxyethoxy)imidazo [1,2-a]pyridin-3-yl]-6-methoxy-benzamide]"
0.01 to 10 nM,10 to 100 nM,0.01 to 10 nM,"COc1cc(-c2cnc3cc(OC[C@@H]4COCCO4)ccn23)cc(OC(F)F)c1C(=O)NC1CC1 [compound 120, N-cyclopropyl-2-(difluoromethoxy)-4-[7-[[(2S)-1,4-dioxan-2-yl]methoxy]imidazo[1,2-a]pyridin-3-yl]-6-methoxy-benzamide]"
0.01 to 10 nM,10 to 100 nM,0.01 to 10 nM,"COc1cc(-c2cnc3cc(OCCCN4CCC(S(C)(=O)=O)CC4)ccn23)cc(OC(F)F)c1C(=O)NC1CC1 [compound 347, N-cyclopropyl-2-(difluoromethoxy)-6-methoxy-4-[7-[3-(4-methylsulfonyl-1-piperidyl)propoxy]imidazo[1,2-a]pyridin-3-yl]benzamide]"
0.01 to 10 nM,10 to 100 nM,0.01 to 10 nM,"COc1cc(-c2cnc3cc(OC[C@H]4CCN(CCC#N)C4)ccn23)cc(OC(F)F)c1C(=O)NC1CC1 [compound 350, 4-[7-[[(3S)-1-(2-cyanoethyl)pyrrolidin-3-yl]methoxy]imidazo[1,2-a]pyridin-3-yl]-N-cyclopropyl-2-(difluoromethoxy)-6-methoxy-benzamide]"
0.01 to 10 nM,10 to 100 nM,0.01 to 10 nM,"COc1cc(-c2cnc3cc(OCc4ncco4)ccn23)cc(OC(F)F)c1C(=O)NC1CC1 [compound 32, N-cyclopropyl-2-(difluoromethoxy)-6-methoxy-4-[7-(oxazol-2-ylmethoxy)imidazo[1,2-a]pyridin-3-yl]benzamide]"
0.01 to 10 nM,10 to 100 nM,0.01 to 10 nM,"COc1cc(-c2cnc3cc(OCC4COCCN4)ccn23)cc(OC(F)F)c1C(=O)NC1CC1 (stereo not drawn) [Cpd 113, N-cyclopropyl-2-(difluoromethoxy)-6-methoxy-4-[7-(morpholin-3-ylmethoxy)imidazo[1,2-a]pyridin-3-yl]benzamide]"
